Test results: patent publication US6517856B1, “Insecticide resistance assay” (priority 1998, dated 2003)

Columns and labels:
H. zea [1] = assay: Feeding disruption assay, CryIAc in Trypan Blue diet (fresh diet); format: in vivo, Helicoverpa zea
Method: The blue diet used in the feeding disruption bioassay is an agar based insect meal containing 20 mg of Trypan Blue (Direct Blue 14; Matheson Coleman & Bell, Norwood, Ohio) per 100 ml of standard artificial diet, and containing different concentrations of CryIAc (MVP, Mycogen). Larvae feeding on this colored diet produced blue feces which were easily distinguished by observation from feces derived from other food sources. Assays were conducted in 1-ounce clear plastic cups (Solo Cup Company, Urbana, Ill.; approximately […] in diameter and ¾ inches high) fitted with white cardboard tops, which are routinely used for insect rearing in the inventors' laboratories. The clear plastic allowed for the observation of blue feces without opening the container.
The diagnostic concentration for resistance detection was also investigated for its ability to distinguish Wake susceptible H. virescens from H. zea. In addition, dose response studies were conducted to identify a concentration of Bt that would distinguish resistant YHD2 neonates of H. virescens from H. zea. Dose response studies were duplicated for 25 resistant (HD2) tobacco budworms and 25 bollworms from two generations at different doses of Bt ranging from 0 to 1000 μg CryIAc/ml of blue diet.

H. virescens = assay: Modified feeding disruption bioassay on MVP-hydrated meal pads, field strains; format: in vivo, Heliothis virescens; settings: for percentage producing 0-2 fecal pellets over 24 h: 0.05 μg MVP per ml diet
Method: (§1) Trypan Blue (Direct Blue 14; Matheson Coleman and Bell, Norwood, Ohio) was blended with artificial diet, 20 mg dye per 100 ml diet. Blue diet aliquots were dispensed (100 μl per well) into 8-well microtiter plate strips (Nalge Nunc Int., Napersville, Ill.). The blue dye served as a marker of feeding on the assay diet, with larvae feeding on colored diet producing blue feces which were easily distinguished visually from feces derived from other food sources. Microtiter plate strips containing blue diet were frozen at −80° C. and lyophilized (Bench Top 6, Virtis, Gardiner, N.Y.; cold trap=−70° C., ˜200 mTorr, ambient temperature=23° C.) for a minimum of 24 h in order to form hydratable meal pads. Meal pads were stored in the dark in sealed plastic bags with desiccant prior to use.
(§2) Meal pads were hydrated with aqueous dilutions of the B. thuringiensis CryIAc δ-endotoxin formulation MVP (Mycogen, San Diego, Calif.) at least 1 h prior to the start of assays. Fresh diet aliquots (100 μl) consistently lost 78-84% of their water content by weight during the lyophilization process. Therefore, meal pads were hydrated with 80 μl of MVP in distilled water (treatments) or distilled water only (controls). The insecticide concentrations referenced throughout this paper are in μg MVP per ml of diet, i.e. the final concentration of insecticide in hydrated diet, which is 80% of the concentration of the solution used to hydrate the meal pads. Strip caps (Nunc) were cut into single caps in order to seal wells of the microtiter plate strips individually, which facilitated observation within wells while not allowing neighboring larvae to escape. In order to reduce condensation within the wells and provide larvae with air, caps were punctured twice with a #3 insect pin. Bioassays were conducted at 27±1° C. with a 14:10 (L:D) cycle, and blue fecal pellets were counted at 24 h. Neonates were used in all assays and were exposed to assay diets within 24 h of hatch. The results from each assay are taken from two replicates of each dose, with each replicate consisting of 24 larvae, one larva per well. Control (no dose) treatments were replicated three times. Dead larvae (defined as no movement for 30 s after prodding with a blunt probe) at the assay endpoint (24 h) were discarded and not included in the reported results. For each surviving larva, the number of fecal pellets produced was recorded. Serial dilutions of the MVP formulation were used for meal pad hydration, with separate dilution series prepared for each replicate.
(§3) Following 24 h exposure to diet containing a known concentration of MVP (Mycogen), a surviving larva was designated as a ‘feeder’ if it had produced more than two fecal pellets and as a ‘non-feeder’ otherwise. The cut-off value of two fecal pellets was adopted because this provided the clearest separation between species. Probit analyses were applied to the dichotomized fecal pellet counts in order to compare strains, between and within species, with respect to the feeding disruption response. A probit model was then used to relate the proportion of non-feeders to dose (on a log10 scale). Probit curves were fitted separately for each insect strain, and a NFC50 (non-feeding concentration50; log10 of the MVP concentration resulting in 50% non-feeders) and slope was obtained for H. zea. Also, probit curves were compared across species and among strains within species using PROC GENMOD with LINK=PROBIT (SAS 1993) on the data for all strains combined, and fitting effects for species, strains within species, log10 dose, as well as dose by species and dose by strain within species interactions.
(§4) Probit estimates of the proportion of feeders at the diagnostic concentration for each strain were used to predict the properties of an assay involving exposure of a small number, n, of larvae in individual wells for 24 h to diet containing a diagnostic concentration of the MVP formulation (final MVP concentration in diet 0.04 μg/ml). […]

H. zea [2] = assay: as above; format: in vivo, Helicoverpa zea
Method: as §1, §2, §3, §4

[3] = H. zea neonates, 0.032 μg CryIAc/ml diet, 24 hour

CryIAc: Bacillus thuringiensis CryIAc δ-endotoxin, commercial formulation MVP (Mycogen), >98.0% δ endotoxin
blue fecal pellets produced per larva (H. zea [1]; [3]): ≥ 7 blue fecal pellets | percentage producing ≧15 blue fecal pellets (H. zea [1]; [3]): 99% | percentage producing no blue feces (H. zea [1]; H. zea neonates, 500 μg CryIAc/ml blue diet, 24 hours): 100% | percentage producing 0-2 fecal pellets in 24 h (H. zea [1]; laboratory susceptible H. zea colony, 1000 μg MVP per ml diet): 98.0% | percentage of insects producing >10 fecal pellets (H. virescens; H. virescens field strains pooled, 0.04 μg MVP per ml diet, 24 h): < 1% | ps, probability of a larva being a feeder, most conservative probit estimate (H. virescens; H. virescens strains, diagnostic concentration 0.04 μg/ml, 24 h): 0.02 | percentage producing 0-2 fecal pellets over 24 h (H. virescens; Hv Franklin neonates): 100% | feeding response (>2 fecal pellets) (H. virescens; Hv Franklin, 0.04 μg MVP per ml diet, 24 h): 2.1% | percentage producing 0-2 fecal pellets over 24 h (H. virescens; Hv Johnston neonates): 95.5% | ps, feeding probability (H. virescens; Hv Quitman (south Georgia), 0.04 μg MVP per ml diet, 24 h): 0.15 | percentage producing >5 fecal pellets (H. virescens; Hv Quitman neonates, 0.04 μg MVP per ml diet, 24 h): 2.2% | percentage producing 0-2 fecal pellets over 24 h (H. virescens; Hv Quitman neonates): 95.5% | feeding response (>2 fecal pellets) (H. virescens; Hv Quitman, 0.04 μg MVP per ml diet, 24 h): 14.9% | percentage producing >5 fecal pellets (H. virescens; Hv Washington neonates, 0.04 μg MVP per ml diet, 24 h): 4.3% | percentage producing 0-2 fecal pellets over 24 h (H. virescens; Hv Washington neonates): 97.7% | fecal pellets produced per larva (none observed above) (H. virescens; all H. virescens field strains, 0.04 μg MVP per ml diet, 24 h): ≤ 11 fecal pellets | pr, probability of a larva being a feeder, most conservative probit estimate (H. zea [2]; H. zea strains, diagnostic concentration 0.04 μg/ml, 24 h): 0.80 | non-feeding response (0-2 fecal pellets) (H. zea [2]; Hz Alachua neonates, 1200 μg MVP per ml diet, 24 h): 87.2% | feeding response (>2 fecal pellets) (H. zea [2]; Hz Alachua, 0.04 μg MVP per ml diet, 24 h): 100% | percentage of neonates remaining feeders (>2 fecal pellets per larva) (H. zea [2]; Hz Alachua, 1200 μg MVP per ml diet, 24 h): 12.8% | percentage producing 0-2 fecal pellets over 24 h (H. zea [2]; Hz Baldwin neonates, 400 μg MVP per ml diet): 97.7% | non-feeding response (0-2 fecal pellets) (H. zea [2]; Hz Barnwell neonates, 1200 μg MVP per ml diet, 24 h): 100% | feeding response (>2 fecal pellets) (H. zea [2]; Hz Barnwell, 0.04 μg MVP per ml diet, 24 h): 100% | percentage producing 0-2 fecal pellets over 24 h (H. zea [2]; Hz Harmon neonates, 400 μg MVP per ml diet): 89.5% | pr, feeding probability (H. zea [2]; Hz Irwin (south Georgia), 0.04 μg MVP per ml diet, 24 h): 0.98 | non-feeding response (0-2 fecal pellets) (H. zea [2]; Hz Nueces neonates, 1200 μg MVP per ml diet, 24 h): 100% | percentage producing 0-2 fecal pellets over 24 h (H. zea [2]; Hz Washington neonates, 400 μg MVP per ml diet): 97.6% | feeding response (>2 fecal pellets) (H. zea [2]; Hz Washington, 0.04 μg MVP per ml diet, 24 h): 80.4% | percentage of larvae producing >6 fecal pellets (H. zea [2]; all H. zea larvae assayed, 1200 μg MVP per ml diet, 24 h): < 1% | percentage producing >15 fecal pellets (H. zea [2]; each of Hz Alachua, Hz Barnwell, Hz Baldwin, 0.04 μg MVP per ml diet, 24 h): > 90% | percentage non-feeders (H. zea [2]; each of three other H. zea field strains, 400 μg MVP per ml diet, 24 h): Less than 88.0% | non-feeding response (H. zea [2]; three of the six H. zea susceptible field strains, 400 μg MVP per ml hydrated diet): > 89%
